Results as given in patent US4317815A, “LH-RH Antagonists” (priority 1979, dated 1982).
*1 amine or outer side, *2 acyl side, *3 side chain or, on linkers, in order; H or OH if unused. Where a SMILES comes first, the peptide text is derived from it. [ ]: non-standard residue; d: D form. dPhe(4-Br) = N[C@H](Cc1ccc(Br)cc1)C(=O)O; dPhe(4-Cl) = N[C@H](Cc1ccc(Cl)cc1)C(=O)O; dPhe(4-F) = N[C@H](Cc1ccc(F)cc1)C(=O)O; Suc = O=C(CCC(=O)[*:2])[*:1]

Test system: mature female rats
Assay: Antiovulatory activity (blockade of ovulation) in proestrus female rats, test of de la Cruz et al.
Type: in vivo, rat
Settings: 12 noon of proestrus
Protocol: The analogs are administered in 20% propylene glycol in physiologic saline (see Table I) or as a suspension in corn oil (see Table II) at 12 noon of the day of proestrus. On the following day, the rats are sacrificed, their fallopian tubes and uteri flushed with saline and the washed examined for ova.
The test results for several analogs are given in Table I. In Table II, a comparison, between the compound of formula I in which X is acetyl, R^1 is D-Phe, R^2 is D-p-Cl-Phe, R^3 is D-Trp, R^4 is D-Trp and R^5 is Gly, the title compound of Example 7, and the compound of the prior art, [Ac-D-Phe^1, D-Phe^2, D-Trp^3,6 ]-LH-RH, noted hereinbefore, is shown. As noted above, a different carrier is used for administering the compounds in Table I than in Table II.

[1] = Table I, dose 0.25 mg, in 20% propylene glycol in physiologic saline, ova examined the following day
[2] = Table I, dose 0.062 mg, in 20% propylene glycol in physiologic saline
[3] = Table I, dose 0.125 mg, in 20% propylene glycol in physiologic saline
[4] = Table I, dose 0.015 mg, in 20% propylene glycol in physiologic saline

## CC(C)C[C@H](NC(=O)[C@@H](Cc1ccccc1)NC(=O)[C@H](Cc1ccc(O)cc1)NC(=O)[C@H](CO)NC(=O)[C@@H](Cc1c[nH]c2ccccc12)NC(=O)[C@@H](Cc1ccc(F)cc1)NC(=O)[C@H](N)Cc1ccccc1)C(=O)N[C@@H](CCCNC(=N)N)C(=O)N1CCC[C@H]1C(=O)NCC(N)=O [D-Phenylalanyl-D-p-fluorophenylalanyl-D-tryptophyl-L-seryl-L-tyrosyl-D-phenylalanyl-L-leucyl-L-arginyl-L-prolyl-glycinamide] (H-[dF][dPhe(4-F)][dW]SY[dF]LRPG-NH2)
[1]
  % Blockade of Ovulation: 10%

## CC(C)C[C@H](NC(=O)[C@@H](Cc1ccccc1)NC(=O)[C@H](Cc1ccc(O)cc1)NC(=O)[C@H](CO)NC(=O)[C@@H](Cc1c[nH]c2ccccc12)NC(=O)[C@@H](Cc1ccc(Cl)cc1)NC(=O)[C@@H](Cc1ccccc1)NC(=O)CCC(=O)O)C(=O)N[C@@H](CCCNC(=N)N)C(=O)N1CCC[C@H]1C(=O)NCC(N)=O [Example 10, N-Succinyl-D-phenylalanyl-D-p-chlorophenylalanyl-D-tryptophyl-L-seryl-L-tyrosyl-D-phenylalanyl-L-leucyl-L-arginyl-l-prolyl-glycinamide] (Suc-[dF][dPhe(4-Cl)][dW]SY[dF]LRPG-NH2)
[2]
  % Blockade of Ovulation: 50%
[3]
  % Blockade of Ovulation: 80%

## CC(=O)N[C@H](Cc1ccc(Cl)cc1)C(=O)N[C@H](Cc1ccc(Cl)cc1)C(=O)N[C@H](Cc1c[nH]c2ccccc12)C(=O)N[C@@H](CO)C(=O)N[C@@H](Cc1ccc(O)cc1)C(=O)N[C@H](Cc1c[nH]c2ccccc12)C(=O)N[C@@H](CC(C)C)C(=O)N[C@@H](CCCNC(=N)N)C(=O)N1CCC[C@H]1C(=O)NCC(N)=O [Example 14, N-Acetyl-D-p-chlorophenylalanyl-D-p-chlorophenylalanyl-D-tryptophyl-L-seryl-L-tyrosyl-D-tryptophyl-L-leucyl-L-arginyl-L-prolyl-glycinamide] (Ac-[dPhe(4-Cl)][dPhe(4-Cl)][dW]SY[dW]LRPG-NH2)
[4]
  % Blockade of Ovulation: 70%

## CC(C)C[C@H](NC(=O)[C@@H](Cc1ccccc1)NC(=O)[C@H](Cc1ccc(O)cc1)NC(=O)[C@H](CO)NC(=O)[C@@H](Cc1c[nH]c2ccccc12)NC(=O)[C@@H](Cc1ccc(Br)cc1)NC(=O)[C@H](N)Cc1ccccc1)C(=O)N[C@@H](CCCNC(=N)N)C(=O)N1CCC[C@H]1C(=O)NCC(N)=O [Example 8, D-Phenylalanyl-D-p-bromophenylalanyl-D-tryptophyl-L-seryl-L-tyrosyl-D-phenylalanyl-L-leucyl-L-arginyl-L-prolyl-glycinamide] (H-[dF][dPhe(4-Br)][dW]SY[dF]LRPG-NH2)
[1]
  % Blockade of Ovulation: 50%

## CC(=O)N[C@H](Cc1ccccc1)C(=O)N[C@H](Cc1ccccc1)C(=O)N[C@H](Cc1c[nH]c2ccccc12)C(=O)N[C@@H](CO)C(=O)N[C@@H](Cc1ccc(O)cc1)C(=O)N[C@H](Cc1c[nH]c2ccccc12)C(=O)N[C@@H](CC(C)C)C(=O)N[C@@H](CCCNC(=N)N)C(=O)N1CCC[C@H]1C(=O)NCC(N)=O [[Ac-D-Phe^1, D-Phe^2, D-Trp^3,6]-LH-RH, reference compound] (Ac-[dF][dF][dW]SY[dW]LRPG-NH2)
Table II, dose 100 mcg, suspension in corn oil
  % Blockade of Ovulation: 40%
Table II, dose 250 mcg, suspension in corn oil
  % Blockade of Ovulation: 100%

## CC(=O)N[C@H](Cc1ccccc1)C(=O)N[C@H](Cc1ccc(Cl)cc1)C(=O)N[C@H](Cc1c[nH]c2ccccc12)C(=O)N[C@@H](CO)C(=O)N[C@@H](Cc1ccc(O)cc1)C(=O)N[C@H](Cc1c[nH]c2ccccc12)C(=O)N[C@@H](CC(C)C)C(=O)N[C@@H](CCCNC(=N)N)C(=O)N1CCC[C@H]1C(=O)N[C@H](C)C(N)=O [Example 16, N-Acetyl-D-phenylalanyl-D-p-chlorophenylalanyl-D-tryptophyl-L-seryl-L-tyrosyl-D-tryptophyl-L-leucyl-L-arginyl-L-prolyl-D-alaninamide] (Ac-[dF][dPhe(4-Cl)][dW]SY[dW]LRP[dA]-NH2)
[4]
  % Blockade of Ovulation: 100%

## CC(=O)N[C@H](Cc1ccccc1)C(=O)N[C@H](Cc1ccc(Cl)cc1)C(=O)N[C@H](Cc1c[nH]c2ccccc12)C(=O)N[C@@H](CO)C(=O)N[C@@H](Cc1ccc(O)cc1)C(=O)N[C@H](Cc1c[nH]c2ccccc12)C(=O)N[C@@H](CC(C)C)C(=O)N[C@@H](CCCNC(=N)N)C(=O)N1CCC[C@H]1C(=O)NCC(N)=O [Example 7, N-Acetyl-D-phenylalanyl-D-p-chlorophenylalanyl-D-tryptophyl-L-seryl-L-tyrosyl-D-tryptophyl-L-leucyl-L-arginyl-L-prolyl-glycinamide] (Ac-[dF][dPhe(4-Cl)][dW]SY[dW]LRPG-NH2)
Table I, dose 0.031 mg, in 20% propylene glycol in physiologic saline
  % Blockade of Ovulation: 64%
[2]
  % Blockade of Ovulation: 100%
Table II, dose 15 mcg, suspension in corn oil
  % Blockade of Ovulation: 100%
Table II, dose 31 mcg, suspension in corn oil
  % Blockade of Ovulation: 100%

## CC(C)C[C@H](NC(=O)[C@@H](Cc1ccccc1)NC(=O)[C@H](Cc1ccc(O)cc1)NC(=O)[C@H](CO)NC(=O)[C@@H](Cc1c[nH]c2ccccc12)NC(=O)[C@@H](Cc1ccc(Cl)cc1)NC(=O)[C@H](N)Cc1ccccc1)C(=O)N[C@@H](CCCNC(=N)N)C(=O)N1CCC[C@H]1C(=O)NCC(N)=O [Example 9, D-Phenylalanyl-D-p-chlorophenylalanyl-D-tryptophyl-L-seryl-L-tyrosyl-D-phenylalanyl-L-leucyl-L-arginyl-L-prolyl-glycinamide] (H-[dF][dPhe(4-Cl)][dW]SY[dF]LRPG-NH2)
[3]
  % Blockade of Ovulation: 11%
[1]
  % Blockade of Ovulation: 82%
